The conditions of data set [1]: Crystal; DSC.
Data set [2] in a line: Molar enthalpy of transition or fusion. The settings on record: Crystal; DSC.

± gives the expanded uncertainty stated by the source.

The values that follow come from the NIST ThermoML archive (doi:10.1021/acs.jced.9b00310).

Take `CC(=O)c1c(C)c([N+](=O)[O-])c(C(C)(C)C)c([N+](=O)[O-])c1C` [3',5'-dinitro-2',6'-dimethyl-4'-tert-butylacetophenone]: the Triple point temperature in data set [1] was determined as 409.5 ± 1 K. The “Molar enthalpy of transition or fusion” value in data set [2] came to 5.69 ± 0.167 kcal/mol.
